In one assay the test system is HLA.A2. Briefly: Binding of GAD65 546-554 fragments to human MHC class I. From the text:
Treatments which reduce GAD65 response can ameliorate Type 1 diabetes in NOD mice (spontaneous responses in NOD and NOD.HLA.A2 mice; the GAD65 546-554 fragments bind Kd and HLA.A2). Unlike the GAD65 molecule, the APL compositions can target a specific set of T cells and reduce the risk of accidental activation of pathogenic T cells.
The mouse (Kd) and human (HLA-A2) are associated with increased risk of Type 1 diabetes.

The next assay relates to CTL clones. Put plainly: IFN release by CTL clones (FIG. 7, Table I). It counts as cell-based. Also on record: Percent Reduction of IFN release: concentration or dose not given beside the values.
Another assay relates to CTL clone 14.86. Put plainly: THF release by CTL clone 14.86 (FIG. 8, Table 2). It counts as cell-based. The note with it: for Percent Reduction of THF: clone 14.86. The text has this: ID No.:11] decreases THF of CTL clone 14.86.

As for “GAD65 546-554: natural 546-554 fragment of glutamic acid decarboxylase GAD65; probably SEQ.ID No. 2 (SYQPLGDKV)”, the “binding to HLA.A2” value in the assay with HLA.A2 is recorded as “bind”.
Turning to S-Y-Q-P-L-G-D-K-A (SYQPLGDKA) [APL-70], the “Percent Reduction of IFN release” value in the assay with CTL clones (clone 14.69, A375) was 41%; with CTL clones (clone 14.69, B7), 27%; with CTL clones (clone 14.81, A375) it was 31%; with CTL clones (clone 14.81, B7), 23%; in the assay with CTL clones (clone 14.86, A375), 16%; in the assay on CTL clones (clone 14.86, B7), 17%. For the same substance, the “IFN release (effect in words)” value in the assay on CTL clones (various CLT clones) is given as “decreases IFN release”. Further, the “THF of CTL clone (effect in words)” value in the assay on CTL clone 14.86 (CTL clone 14.86) was “decreases THF”. In addition, the “Percent Reduction of THF” value was found to be 37% with CTL clone 14.86 (A375) and 34% with CTL clone 14.86 (B7).

Values taken from US7994279B2, “Altered peptide ligands of GAD65” (The University of Toledo, priority 2006, dated 2011).
